# Experimental data as given in ChEMBL document CHEMBL2069174, “Novel 2-methoxyacylhydrazones as potent, selective PDE10A inhibitors with activity in animal models of schizophrenia” (Bioorg Med Chem Lett, 2012).
# Columns and labels:
# [1] = Metabolic stability of the compound in simulated gastric fluid; format: physicochemical; conditions: simulated gi fluid
# Mus musculus = assay: Oral bioavailability in mouse; format: ADME, organism-based; conditions: in vivo
# Nucleic Acid = assay: (§1) Ratio of drug level in brain to plasma in mouse; format: ADME, organism-based; conditions: brain
# [2] = as §1; format: ADME, organism-based; conditions: brain and plasma, read-out: BPR
Stability [1],F (Mus musculus),BPR (Nucleic Acid),Kp [2],SMILES
Stable,63%,0.37,,COc1cc(/C=N/NC(=O)C(OC)c2ccc(N3CCOCC3)cc2)cc(OC)c1Br (racemic)
,48%,0.39,,COc1cc(/C=N/NC(=O)C(OC)c2ccc(-n3cccn3)cc2)cc(OC)c1Br (racemic)
,91%,,0.27,"COc1cc(/C=N/NC(=O)C(OC)c2ccc(N3CCOCC3)cc2)cc(OC)c1Br (single isomer, unassigned; enantiomer 1)"
Stable,92%,0.12,,COc1cc(/C=N/NC(=O)C(OC)c2ccc(-n3cccn3)cc2)cc(OC)c1Br (stereo in doubt; 61)
